US20260097126A1, “PHARMACEUTICAL FORMULATIONS AND METHODS FOR THE TREATMENT OF METABOLIC AND LIVER DISORDERS” (priority 2022, published 2026)

Experiments:
GLP-1 receptor [1] = target: T1, GLP-1 receptor (Homo sapiens, UniProt P43220); assay: HSA modulated binding assay, GLP-1 receptor
GIP receptor [2] = target: T2, GIP receptor (Homo sapiens, UniProt P48546); assay: HSA modulated binding assay, GIP receptor
T2 sequence (P48546 22-466): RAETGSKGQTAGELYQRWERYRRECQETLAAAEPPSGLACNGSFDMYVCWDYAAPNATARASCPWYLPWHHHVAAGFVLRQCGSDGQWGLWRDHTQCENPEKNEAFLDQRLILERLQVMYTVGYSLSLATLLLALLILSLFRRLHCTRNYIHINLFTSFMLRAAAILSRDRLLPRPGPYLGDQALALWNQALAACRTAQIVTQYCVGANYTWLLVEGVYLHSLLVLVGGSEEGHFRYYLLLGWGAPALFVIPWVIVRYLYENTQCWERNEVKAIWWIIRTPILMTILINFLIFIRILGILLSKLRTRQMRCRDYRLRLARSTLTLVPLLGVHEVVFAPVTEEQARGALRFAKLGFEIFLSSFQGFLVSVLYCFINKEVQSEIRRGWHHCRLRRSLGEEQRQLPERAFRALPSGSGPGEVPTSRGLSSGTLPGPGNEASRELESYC

[3] = Pharmacokinetic study of Compounds 4, 14, 15, 17 in monkeys; details: cynomolgus monkey, in vivo, sc, 0.2 mg/kg
Method: The formulations were administered to cynomolgus monkeys at a dose of 0.2 mg/kg. Plasma concentration versus time data was collected and pharmacokinetic values determined.

[4] = tested on: mice fed a Gubra amylin NASH (GAN) diet; assay: Biological effects in GAN diet-induced NASH mice; format: in vivo; details: after two weeks
Method: NASH was induced in mice by feeding mice a Gubra amylin NASH (GAN) diet as described in Boland et al. World J Gastroenterol. 2019, 25(33): 4904-4920. One week prior to administration of a first dose of compounds, the mice were weighed and randomized, and their food intake was measured. Mice were randomly assigned to dosing groups, with twelve mice per group. […] Compound dose titration (nmol/kg): 0.6 (day 0), 1.2 (day 1), 2.4 (day 2), 4.8 (day 3), 4.8 (day 4), 12 (day 5), 30.0 (from day 6).
After two weeks, animals were sacrificed. Plasma enzymes (P-ALT (alanine aminotransferase) and P-AST (aspartate aminotransferase)), total plasma triglycerides, and total plasma cholesterol were measured, and terminal necropsy of each liver was carried out, determining relative liver weight as a percentage of body weight, assaying total liver biochemistry including total liver triglycerides, plasma insulin and total liver cholesterol, as well as histological evaluation of Galectin-3, and alpha-smooth muscle actin.

GIP receptor [5] = target: T2, GIP receptor; assay: TagLite binding assay, GIP receptor
[6] = Stability study of Compound 4 formulations; format: physicochemical
GLP-1 receptor [7] = target: T1, GLP-1 receptor; assay: TagLite binding assay, GLP-1 receptor
[8] = binding with 2% HSA to binding with 0% HSA
[9] = liver Galectin-3, histological quantitative assessment
[10] = liver alpha-smooth muscle actin, histological quantitative assessment
[11] = GMP formulation, 2.5 mg/ml Compound 4, 0.94% propylene glycol, 0.36% phenol, 0.074% dibasic sodium phosphate, 0.005% polysorbate 80, initial
[12] = same formulation stored for one month at 25° C./60% R.H.

T1 sequence (P43220 24-463): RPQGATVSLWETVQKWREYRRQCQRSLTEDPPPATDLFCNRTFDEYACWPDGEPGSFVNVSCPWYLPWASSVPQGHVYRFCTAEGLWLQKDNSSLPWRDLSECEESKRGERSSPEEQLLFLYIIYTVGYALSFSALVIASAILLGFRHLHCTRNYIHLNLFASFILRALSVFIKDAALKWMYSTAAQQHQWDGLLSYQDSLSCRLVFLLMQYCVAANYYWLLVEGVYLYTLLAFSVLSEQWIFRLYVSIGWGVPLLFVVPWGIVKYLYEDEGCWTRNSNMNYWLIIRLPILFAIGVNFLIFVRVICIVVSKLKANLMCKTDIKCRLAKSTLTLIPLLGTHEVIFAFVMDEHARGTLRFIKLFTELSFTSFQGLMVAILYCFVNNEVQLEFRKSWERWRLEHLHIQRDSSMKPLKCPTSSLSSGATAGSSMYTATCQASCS

Compound: CC[C@H](C)[C@H](NC(=O)[C@H](CC(C)C)NC(=O)[C@H](Cc1c[nH]c2ccccc12)NC(=O)[C@H](CCC(N)=O)NC(=O)[C@@H](NC(=O)[C@H](Cc1ccccc1)NC(=O)[C@H](C)NC(=O)[C@H](CCCCNC(=O)COCCOCCNC(=O)COCCOCCNC(=O)CC[C@H](NC(=O)CCCCCCCCCCCCCCCCCCP(=O)(O)O)C(=O)O)NC(=O)[C@H](CCC(N)=O)NC(=O)[C@H](C)NC(=O)[C@@H](NC(=O)[C@H](CCCCN)NC(=O)[C@H](CC(=O)O)NC(=O)[C@H](CC(C)C)NC(=O)C(C)(C)NC(=O)[C@@H](NC(=O)[C@H](CO)NC(=O)[C@H](Cc1ccc(O)cc1)NC(=O)[C@H](CC(=O)O)NC(=O)[C@H](CO)NC(=O)[C@@H](NC(=O)[C@H](Cc1ccccc1)NC(=O)[C@@H](NC(=O)CNC(=O)[C@H](CCC(=O)O)NC(=O)C(C)(C)NC(=O)[C@@H](N)Cc1ccc(O)cc1)[C@@H](C)O)[C@@H](C)O)[C@@H](C)CC)[C@@H](C)CC)C(C)C)C(=O)N[C@@H](C)C(=O)NCC(=O)NCC(=O)N1CCC[C@H]1C(=O)N[C@@H](CO)C(=O)N[C@@H](CO)C(=O)NCC(=O)N[C@@H](C)C(=O)N1CCC[C@H]1C(=O)N1CCC[C@H]1C(=O)N1CCC[C@H]1C(=O)N[C@@H](CO)C(N)=O [Compound 4]
- IC50 (GLP-1 receptor [1]; 0% human serum albumin, read-out: GLP-1 receptor IC 50, 0% HSA): 154 nM
- GLP-1 receptor Ratio of HSA/No HSA (GLP-1 receptor [1]; [8]): 6.42
- IC50 (GLP-1 receptor [1]; read-out: GLP-1 receptor IC 50, 2% HSA, 2% human serum albumin): 988 nM
- IC50 (GIP receptor [2]; 0% human serum albumin, read-out: GIP receptor IC 50, 0% HSA): 264 nM
- GIP receptor Ratio of HSA/No HSA (GIP receptor [2]; [8]): 1.25
- IC50 (GIP receptor [2]; read-out: GIP receptor IC 50, 2% HSA, 2% human serum albumin): 331 nM
- AUC(0-inf) [3]: 321 µg·h/mL
- AUC(0-t) [3]: 309 µg·h/mL
- CL/F [3]: 15.2 mL/day/kg
- Cmax [3]: 1890 ng/mL
- Tmax [3]: 20 h
- Vd/F [3]: 0.095 L/kg
- half-life [3]: 105 h
- liver Galectin-3 compared to tirzepatide or vehicle (in words) [4]: lower relative and total liver Galectin-3 as compared to administration of tirzepatide or vehicle alone
- liver alpha-smooth muscle actin compared to tirzepatide (in words) [4]: lower relative and total liver alpha-smooth muscle actin as compared to administration of tirzepatide
- liver triglycerides compared to tirzepatide or vehicle (in words) [4]: lower relative and total liver triglycerides as compared to administration of tirzepatide or vehicle alone
- Gal-3 Relative [4, 9]: 6.3 ± 0.3 percent fractional area
- Gal-3 Total [4, 9]: 137 ± 15 mg
- α-SMA Relative [4, 10]: 4.8 ± 0.6 percent fractional area
- α-SMA Total [4, 10]: 102 ± 10 mg
- TG Relative ([4]; liver triglycerides): 37 ± 3 mg per/g liver
- TG Total ([4]; liver triglycerides): 70 ± 5 mg per/liver
- IC50 (GIP receptor [5]; read-out: GIP receptor IC 50): 153 nM
- Compound 4 assay, before storage [6, 11]: 103%
- total impurities, before storage [6, 11]: 0.57%
- Compound 4 assay, after storage [6, 12]: 102.4%
- total impurities, after storage [6, 12]: 0.76%
- IC50 (GLP-1 receptor [7]; read-out: GLP-1 receptor IC 50): 105 nM

Compound: tirzepatide [reference compound]
- GLP-1 receptor % Binding avg at CMax, 0% HSA (GLP-1 receptor [1]; 0% human serum albumin): −0.14%
- GLP-1 receptor % Binding avg at CMax, 2% HSA (GLP-1 receptor [1]; 2% human serum albumin): 33.01%
- binding affinity for albumin (in words) (GLP-1 receptor [1]; inferred from the HSA ratios at GLP-1 and GIP receptors): greater than that of Compound 4 or of Compound 12
- GIP receptor % Binding avg at CMax, 0% HSA (GIP receptor [2]; 0% human serum albumin): −3.05%
- GIP receptor % Binding avg at CMax, 2% HSA (GIP receptor [2]; 2% human serum albumin): 10.07%
- Gal-3 Total [4, 9]: 138 ± 17 mg
- α-SMA Total [4, 10]: 108 ± 22 mg
- TG Total ([4]; liver triglycerides): 80 ± 11 mg per/liver
- GIP receptor % Binding avg at CMax (GIP receptor [5]): −1.21%
- GLP-1 receptor % Binding avg at CMax (GLP-1 receptor [7]): 0.20%
